The values below come from patent US8648086B2, “5,6-bicyclic heteroaryl-containing urea compounds as kinase inhibitors” (Ascepion Pharmaceuticals, Inc., priority 2009, dated 2014).

Assay [1] deals with T1, VEGFR2 (Homo sapiens, UniProt P35968).
T1 construct: expressed in transfected cells; host or cells: CHO cells, pcDNA3.1 plasmid
The assay is described as follows: VEGFR2 cell-based assay (phospho-VEGFR2 ELISA, transfected CHO cells). To be noted: compound at 100 nM, read-out: % VEGFR2 kinase activity remains. The method, then: A standard cell-based assay for VEGFR2 kinase activity can be used to test compounds of this invention and to identify VEGFR2 antagonists.
Specifically, a compound to be tested was first dissolved in DMSO to a concentration of 10 mM and stored at −20° C. The activity of VEGFR2 in cells depends on the phosphorylation level at its intracellular domain induced by the ligand. In order to express VEGFR2 in the cells, full length VEGFR2 sequence was cloned into PC-DNA3.1 vector, the plasmid was then transfected into CHO cells. After 48 hours, the expression of VEGFR2 in transfected CHO cells was confirmed by regular western blotting.
To screen the compounds of this invention, the ELISA kit (R&D Systems) was used. One day before the screening, CHO cells transfected with full length VEGFR2 plasmid were grown in DMEM medium without the presence of serum. On the day of screening, various concentrations of compounds (From 0.5 nM to 500 nM) were added into DMEM medium. Two hours later, 20% of FBS (Fetal Bovine Serum) was added into the medium to stimulate the production of phosphor-VEGFR2. Cell lysate from approximately 5×10^5 transfected CHO cells were reacted with anti-phosphor-VEGFR2 or anti-total VEGFR2 antibody in 96 well plates. In the presence of detection antibody, the phosphor-VEGFR2 or total VEGFR2 were detected with Streptavidin-HRP (R&D Systems) followed by chemiluminescence detection.

Assay [2] has as its target T2, c-Met (Homo sapiens, UniProt P08581).
T2 construct: endogenous in cells; host or cells: A549 cells
The assay can be described thus: c-Met cell-based assay (phospho-c-Met ELISA, A549 cells). To be noted: compound at 100 nM. Here is the method: A procedure for standard cell-based assay for c-Met kinase activity can be used to test compounds of this invention for their inhibitory effect on this kinase and to identify c-Met antagonists.
Specifically, a compound to be tested was first dissolved in DMSO to a concentration of 10 mM and stored at −20° C. The activity of c-Met in cells depends on the phosphorylation level at its intracellular domain induced by its ligand, Hepatocyte growth factor (HGF). In order to induce the cells to produce phosphate c-Met, paracrine HGF-dependent NSCLC (None Small Cell Lung Cancer) A549 cells were grown in DMEM with 10% FBS.
To screen compounds of this invention for their inhibitory effect on c-Met kinase, the ELISA kit (R&D Systems) was used. One day before screening procedure, A549 cells were grown in DMEM without the presence of serum. On the day of screening procedure, various concentrations of compounds (from 0.5 nM to 500 nM) were added into the culture medium. Two hours later, 20% of FBS (Fetal Bovine Serum) was added into the medium to stimulate the expression of phosphor-c-Met. After 20 minutes, cell lysate from approximately 5×10^5 A549 cells were reacted with anti-phosphor-c-Met or anti total c-Met antibody in 96 well plates. In the presence of detection antibody, the phosphor-c-Met or total c-Met can be detected with Streptavidin-HRP (R&D Systems) followed by chemiluminescence detection.
On the technique in general: In an ELISA, binding on a coated surface is turned into a signal by an enzyme label.

Counter-ions that a name gives are not always drawn.

T2 sequence (P08581 25-1390): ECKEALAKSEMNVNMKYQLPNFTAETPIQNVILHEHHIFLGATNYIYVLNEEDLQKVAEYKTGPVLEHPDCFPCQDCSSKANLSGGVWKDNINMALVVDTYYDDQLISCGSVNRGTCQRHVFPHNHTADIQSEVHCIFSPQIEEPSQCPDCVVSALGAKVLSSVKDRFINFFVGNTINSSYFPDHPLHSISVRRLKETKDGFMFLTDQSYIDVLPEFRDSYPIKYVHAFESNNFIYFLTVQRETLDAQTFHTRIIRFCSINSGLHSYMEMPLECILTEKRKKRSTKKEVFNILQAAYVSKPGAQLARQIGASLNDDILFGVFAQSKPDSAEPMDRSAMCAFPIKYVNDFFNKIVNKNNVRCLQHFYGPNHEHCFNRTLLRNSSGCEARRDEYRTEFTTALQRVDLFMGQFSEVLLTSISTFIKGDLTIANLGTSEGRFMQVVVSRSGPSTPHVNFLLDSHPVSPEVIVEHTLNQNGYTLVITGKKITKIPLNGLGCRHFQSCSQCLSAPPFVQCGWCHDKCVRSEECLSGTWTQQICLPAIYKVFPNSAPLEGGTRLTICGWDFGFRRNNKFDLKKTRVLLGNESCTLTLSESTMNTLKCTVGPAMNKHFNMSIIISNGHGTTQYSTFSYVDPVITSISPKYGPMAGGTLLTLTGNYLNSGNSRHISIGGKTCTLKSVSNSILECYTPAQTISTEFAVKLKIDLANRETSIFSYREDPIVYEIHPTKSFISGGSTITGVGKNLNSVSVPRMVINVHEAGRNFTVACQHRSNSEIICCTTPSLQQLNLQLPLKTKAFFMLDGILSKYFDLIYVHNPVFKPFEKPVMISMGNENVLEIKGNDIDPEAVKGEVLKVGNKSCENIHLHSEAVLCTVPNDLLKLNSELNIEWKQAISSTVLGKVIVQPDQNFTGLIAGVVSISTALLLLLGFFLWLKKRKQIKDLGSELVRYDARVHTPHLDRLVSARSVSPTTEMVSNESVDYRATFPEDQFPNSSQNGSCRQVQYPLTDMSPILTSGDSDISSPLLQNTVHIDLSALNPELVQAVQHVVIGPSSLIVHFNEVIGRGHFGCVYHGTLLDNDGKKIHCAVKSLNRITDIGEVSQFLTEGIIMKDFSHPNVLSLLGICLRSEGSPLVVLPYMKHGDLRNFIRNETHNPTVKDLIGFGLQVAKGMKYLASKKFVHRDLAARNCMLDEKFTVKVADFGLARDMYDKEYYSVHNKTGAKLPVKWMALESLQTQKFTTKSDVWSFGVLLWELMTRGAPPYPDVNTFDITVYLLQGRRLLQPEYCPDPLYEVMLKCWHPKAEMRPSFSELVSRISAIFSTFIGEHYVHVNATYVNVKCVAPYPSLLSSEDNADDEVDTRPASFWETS
T1 sequence (P35968 20-1356, species assumed): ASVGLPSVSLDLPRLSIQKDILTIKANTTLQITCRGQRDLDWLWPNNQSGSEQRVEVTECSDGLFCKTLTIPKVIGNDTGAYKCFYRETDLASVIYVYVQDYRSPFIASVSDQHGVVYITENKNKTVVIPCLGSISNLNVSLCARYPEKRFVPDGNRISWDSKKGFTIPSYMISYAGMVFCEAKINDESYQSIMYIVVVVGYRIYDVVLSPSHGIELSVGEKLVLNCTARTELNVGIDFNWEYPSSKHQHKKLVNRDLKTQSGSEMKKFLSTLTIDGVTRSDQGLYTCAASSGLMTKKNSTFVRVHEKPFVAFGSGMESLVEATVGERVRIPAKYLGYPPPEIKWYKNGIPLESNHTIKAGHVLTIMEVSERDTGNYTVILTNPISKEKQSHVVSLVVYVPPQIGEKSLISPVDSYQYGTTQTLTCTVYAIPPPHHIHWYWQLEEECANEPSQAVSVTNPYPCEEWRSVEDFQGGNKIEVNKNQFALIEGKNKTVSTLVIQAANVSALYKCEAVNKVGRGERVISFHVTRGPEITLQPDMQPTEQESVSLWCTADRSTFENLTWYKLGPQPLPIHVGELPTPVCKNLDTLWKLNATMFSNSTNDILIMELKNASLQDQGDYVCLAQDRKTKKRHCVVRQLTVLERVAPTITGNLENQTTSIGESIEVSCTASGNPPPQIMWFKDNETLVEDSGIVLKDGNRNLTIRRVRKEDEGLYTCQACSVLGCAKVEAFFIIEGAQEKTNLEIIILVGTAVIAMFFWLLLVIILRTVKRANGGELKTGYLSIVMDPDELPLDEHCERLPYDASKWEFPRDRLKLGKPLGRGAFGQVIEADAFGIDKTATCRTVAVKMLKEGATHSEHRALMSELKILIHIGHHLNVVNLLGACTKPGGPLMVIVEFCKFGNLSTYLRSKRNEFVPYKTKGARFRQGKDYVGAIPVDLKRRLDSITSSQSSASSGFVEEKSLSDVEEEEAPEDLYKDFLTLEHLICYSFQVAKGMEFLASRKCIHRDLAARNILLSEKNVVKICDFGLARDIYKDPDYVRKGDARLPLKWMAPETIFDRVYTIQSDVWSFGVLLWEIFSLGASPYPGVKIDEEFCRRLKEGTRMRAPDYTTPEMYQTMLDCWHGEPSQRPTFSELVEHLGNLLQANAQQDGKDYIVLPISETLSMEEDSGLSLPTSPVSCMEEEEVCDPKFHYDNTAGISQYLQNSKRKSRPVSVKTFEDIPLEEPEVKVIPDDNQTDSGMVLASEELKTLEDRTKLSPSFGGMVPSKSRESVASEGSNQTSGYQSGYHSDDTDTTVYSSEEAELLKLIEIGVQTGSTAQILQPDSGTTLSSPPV

As to `Cl.O=C(Nc1ccccc1F)Nc1cccc2c1ccn2Cc1c[nH]c2ncccc12` [Example 5, 1-(2-Fluorophenyl)-3-[1-(1H-pyrrolo[2,3-b]pyridin-3-ylmethyl)-1H-indol-4-yl]urea hydrochloride], in assay [1], the remaining activity at 0.1 µM was no less than 70%. For the same molecule, the “% c-Met kinase activity remains” value in assay [2] is “A (the percentage of kinase activity remains is below 70%)”.
The like results for `Cl.O=C(Nc1cccc(F)c1)Nc1cccc2c1ccn2Cc1c[nH]c2ncccc12` [Example 6, 1-(3-Fluorophenyl)-3-[1-(1H-pyrrolo[2,3-b]pyridin-3-ylmethyl)-1H-indol-4-yl]urea hydrochloride] were, in that order, less than 70% and “B (the percentage is greater or equal to 70%)”.
The like results for `Cl.O=C(Nc1ccc(F)cc1)Nc1cccc2c1ccn2Cc1c[nH]c2ncccc12` [Example 7, 1-(4-Fluorophenyl)-3-[1-(1H-pyrrolo[2,3-b]pyridin-3-ylmethyl)-1H-indol-4-yl]urea hydrochloride] were, in that order, less than 70% and “A (the percentage of kinase activity remains is below 70%)”.
The matching figures for `O=C(Nc1ccccc1Cl)Nc1cccc2c1ccn2Cc1c[nH]c2ncccc12` [Example 8, 1-(2-Chlorophenyl)-3-[1-(1H-pyrrolo[2,3-b]pyridin-3-ylmethyl)-1H-indol-4-yl]urea hydrochloride]: no less than 70% and “A (the percentage of kinase activity remains is below 70%)”.
`O=C(Nc1cccc(Cl)c1)Nc1cccc2c1ccn2Cc1c[nH]c2ncccc12` [Example 9, 1-(3-Chlorophenyl)-3-[1-(1H-pyrrolo[2,3-b]pyridin-3-ylmethyl)-1H-indol-4-yl]urea hydrochloride]: in assay [1], the remaining activity at 0.1 µM is less than 70%. In assay [2], the “% c-Met kinase activity remains” value is reported as “B (the percentage is greater or equal to 70%)”.
The matching figures for `Cl.O=C(Nc1ccccc1Br)Nc1cccc2c1ccn2Cc1c[nH]c2ncccc12` [Example 11, 1-(2-Bromophenyl)-3-[1-(1H-pyrrolo[2,3-b]pyridin-3-ylmethyl)-1H-indol-4-yl]urea hydrochloride]: no less than 70% and “A (the percentage of kinase activity remains is below 70%)”.
The matching figures for `Cc1ccccc1NC(=O)Nc1cccc2c1ccn2Cc1c[nH]c2ncccc12.Cl` [Example 14, 1-(2-Methylphenyl)-3-[1-(1H-pyrrolo[2,3-b]pyridin-3-ylmethyl)-1H-indol-4-yl]urea hydrochloride]: less than 70% and “A (the percentage of kinase activity remains is below 70%)”.
Turning to `Cc1cccc(NC(=O)Nc2cccc3c2ccn3Cc2c[nH]c3ncccc23)c1.Cl` [Example 15, 1-(3-Methylphenyl)-3-[1-(1H-pyrrolo[2,3-b]pyridin-3-ylmethyl)-1H-indol-4-yl]urea hydrochloride], in assay [1], the remaining activity at 0.1 µM is less than 70%. For the same molecule, in assay [2], the “% c-Met kinase activity remains” value is recorded as “A (the percentage of kinase activity remains is below 70%)”.
The matching figures for `Cc1ccc(NC(=O)Nc2cccc3c2ccn3Cc2c[nH]c3ncccc23)cc1.Cl` [Example 16, 1-(4-Methylphenyl)-3-[1-(1H-pyrrolo[2,3-b]pyridin-3-ylmethyl)-1H-indol-4-yl]urea hydrochloride]: no less than 70% and “A (the percentage of kinase activity remains is below 70%)”.
Regarding `COc1ccccc1NC(=O)Nc1cccc2c1ccn2Cc1c[nH]c2ncccc12.Cl` [Example 17, 1-(2-Methoxyphenyl)-3-[1-(1H-pyrrolo[2,3-b]pyridin-3-ylmethyl)-1H-indol-4-yl]urea hydrochloride], in assay [1], the remaining activity at 0.1 µM was less than 70%. The “% c-Met kinase activity remains” value in assay [2] is “A (the percentage of kinase activity remains is below 70%)”.
For the molecule `COc1cccc(NC(=O)Nc2cccc3c2ccn3Cc2c[nH]c3ncccc23)c1.Cl` [Example 18, 1-(3-Methoxyphenyl)-3-[1-(1H-pyrrolo[2,3-b]pyridin-3-ylmethyl)-1H-indol-4-yl]urea hydrochloride], in assay [1], the remaining activity at 0.1 µM is less than 70%. The “% c-Met kinase activity remains” value in assay [2] is recorded as “A (the percentage of kinase activity remains is below 70%)”.
For the molecule `COc1ccc(NC(=O)Nc2cccc3c2ccn3Cc2c[nH]c3ncccc23)cc1.Cl` [Example 19, 1-(4-Methoxyphenyl)-3-[1-(1H-pyrrolo[2,3-b]pyridin-3-ylmethyl)-1H-indol-4-yl]urea hydrochloride], the remaining activity at 0.1 µM in assay [1] is less than 70%. Further, in assay [2], the “% c-Met kinase activity remains” value is on record as “A (the percentage of kinase activity remains is below 70%)”.
On to `Cl.O=C(Nc1ccccc1OC(F)(F)F)Nc1cccc2c1ccn2Cc1c[nH]c2ncccc12` [Example 20, 1-(2-Trifluoromethoxyphenyl)-3-[1-(1H-pyrrolo[2,3-b]pyridin-3-ylmethyl)-1H-indol-4-yl]urea hydrochloride], for which the remaining activity at 0.1 µM in assay [1] is less than 70%. In addition, the “% c-Met kinase activity remains” value in assay [2] is “A (the percentage of kinase activity remains is below 70%)”.
The matching figures for `Cl.O=C(Nc1ccccc1C(F)(F)F)Nc1cccc2c1ccn2Cc1c[nH]c2ncccc12` [Example 23, 1-(2-Trifluoromethylphenyl)-3-[1-(1H-pyrrolo[2,3-b]pyridin-3-ylmethyl)-1H-indol-4-yl]urea hydrochloride]: less than 70% and “A (the percentage of kinase activity remains is below 70%)”.
For `Cl.O=C(Nc1cccc(C(F)(F)F)c1)Nc1cccc2c1ccn2Cc1c[nH]c2ncccc12` [Example 24, 1-(3-Trifluoromethylphenyl)-3-[1-(1H-pyrrolo[2,3-b]pyridin-3-ylmethyl)-1H-indol-4-yl]urea hydrochloride], in assay [1], the remaining activity at 0.1 µM was less than 70%. Besides, the “% c-Met kinase activity remains” value in assay [2] was “A (the percentage of kinase activity remains is below 70%)”.
The matching figures for `Cl.O=C(Nc1ccc(C(F)(F)F)cc1)Nc1cccc2c1ccn2Cc1c[nH]c2ncccc12` [Example 25, 1-(4-Trifluoromethylphenyl)-3-[1-(1H-pyrrolo[2,3-b]pyridin-3-ylmethyl)-1H-indol-4-yl]urea hydrochloride]: no less than 70% and “A (the percentage of kinase activity remains is below 70%)”.
Turning to `Cl.N#Cc1cccc(NC(=O)Nc2cccc3c2ccn3Cc2c[nH]c3ncccc23)c1` [Example 26, 1-(3-Cyanophenyl)-3-[1-(1H-pyrrolo[2,3-b]pyridin-3-ylmethyl)-1H-indol-4-yl]urea hydrochloride], the remaining activity at 0.1 µM in assay [1] is no less than 70%. In addition, in assay [2], the “% c-Met kinase activity remains” value was “A (the percentage of kinase activity remains is below 70%)”.
The like results for `Cl.N#Cc1ccc(NC(=O)Nc2cccc3c2ccn3Cc2c[nH]c3ncccc23)cc1` [Example 27, 1-(4-Cyanophenyl)-3-[1-(1H-pyrrolo[2,3-b]pyridin-3-ylmethyl)-1H-indol-4-yl]urea hydrochloride] were, in that order, less than 70% and “A (the percentage of kinase activity remains is below 70%)”.
The matching figures for `Cl.O=C(Nc1ccccc1)Nc1cccc2c1ccn2Cc1ccnc2[nH]ccc12` [Example 33, 1-Phenyl-3-[1-(1H-pyrrolo[2,3-b]pyridin-4-ylmethyl)-1H-indol-4-yl]urea hydrochloride]: less than 70% and “B (the percentage is greater or equal to 70%)”.
